How the values were obtained:
Test in all cases: Histone peptide microarray
Assay type in all cases: binding, human
Conditions in all cases: arrays performed twice, n of 4
[1] = test system: PHF21A
Summary of the method: (§1)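 Binding read as mean relative signal from 4 replicates; microarray held 293 synthetic histone peptides with single or combinatorial PTMs. Each GST-tagged PHD reader was applied at 0.5 μM using the optimized Petell protocol.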

[2] = test system: PHRF1 (RP)
Summary of the method: as §1

[3] = test system: KDM7A
Summary of the method: as §1

[4] = test system: BAZ2B
Summary of the method: as §1

[5] = test system: AIRE (PP)
Summary of the method: as §1

[6] = test system: PHF8
Summary of the method: as §1

[7] = test system: PHF23
Summary of the method: as §1

[8] = test system: KDM5A (3)
Summary of the method: as §1

[9] = test system: MORC3 (CW)
Summary of the method: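 A peptide microarray holding 293 synthetic histone peptides with individual or combinatorial modifications was probed with each GST-PHD protein at 0.5 μM. Values represent mean intensity (±SD) from four replicates.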

[10] = test system: CHD4 (PPCC)
Summary of the method: as §1

[11] = test system: KDM5B (1)
Summary of the method: as §1

[12] = test system: ING1
Summary of the method: as §1

[13] = test system: ING2
Summary of the method: as §1

[14] = test system: ING5
Summary of the method: as §1

[15] = test system: BPTF (PB)
Summary of the method: as §1

[16] = test system: KDM5A (1)
Summary of the method: as §1

[17] = test system: RAG2
Summary of the method: as §1

[18] = test system: KDM5B (3)
Summary of the method: as §1

[19] = test system: ING3
Summary of the method: as §1

[20] = test system: ING4
Summary of the method: as §1

[21] = test system: MLL5
Summary of the method: as §1

[22] = test system: CHD5 (PPCC)
Summary of the method: as §1

[23] = test system: KDM4C (TTP)
Summary of the method: as §1

[24] = test system: PHF13
Summary of the method: as §1

[25] = test system: DPF2 (PPC2W2)
Summary of the method: as §1

[26] = test system: CHD5 (PCC)
Summary of the method: as §1

[27] = test system: SP140L
Summary of the method: as §1

[28] = test system: PHF2
Summary of the method: as §1

[29] = test system: TRIM66 (PB)
Summary of the method: as §1

[30] = test system: DIDO1
Summary of the method: as §1

[31] = test system: TAF3
Summary of the method: as §1

[32] = histone peptide array, GST-tagged reader
[33] = histone peptide array, GST-tagged reader, PPCC = Dual PHD + Dual Chromodomain
[34] = histone peptide array, GST-tagged reader, PB = PHD + Bromodomain

**Q.** H3 (15-34)K27but: H3 15-34 was tested. Which “Array Heatmap signal, PHF21A” value [1, 32] did it give?
**A.** The value was 0.4988.

**Q.** And the “Array Heatmap signal, PHRF1 (RP)” value [2, 32]?
**A.** The value was 0.4393.

**Q.** And the “Array Heatmap signal, KDM7A” value [3, 32]?
**A.** Its value is 0.4288.

**Q.** What about the “Array Heatmap signal, BAZ2B” value [4, 32] of the same substance?
**A.** Its value is 0.4927.

**Q.** What about the “Array Heatmap signal, AIRE (PP)” value [5, 32] of the same substance?
**A.** Its value is 0.5516.

**Q.** And the “Array Heatmap signal, PHF8” value [6, 32]?
**A.** Its value is 0.4166.

**Q.** And the “Array Heatmap signal, PHF23” value [7, 32]?
**A.** The value was 0.5352.

**Q.** What about the “Array Heatmap signal, KDM5A (3)” value [8, 32] of the same substance?
**A.** The value was 0.4198.

**Q.** What about the “Array Heatmap signal, MORC3 (CW)” value ([9]; histone peptide array, GST-tagged reader, CW = CW-type Zn-finger) of the same substance?
**A.** The value was 0.372.

**Q.** What about the “Array Heatmap signal, CHD4 (PPCC)” value [10, 33] of the same substance?
**A.** The value was 0.6128.

**Q.** What about the “Array Heatmap signal, KDM5B (1)” value [11, 32] of the same substance?
**A.** Its value is 0.6712.

**Q.** And the “Array Heatmap signal, ING1” value [12, 32]?
**A.** Its value is 0.5341.

**Q.** And the “Array Heatmap signal, ING2” value [13, 32]?
**A.** The value was 0.591.

**Q.** What about the “Array Heatmap signal, ING5” value [14, 32] of the same substance?
**A.** Its value is 0.383.

**Q.** What about the “Array Heatmap signal, BPTF (PB)” value [15, 34] of the same substance?
**A.** Its value is 0.3698.

**Q.** What about the “Array Heatmap signal, KDM5A (1)” value [16, 32] of the same substance?
**A.** The value was 0.5054.

**Q.** And the “Array Heatmap signal, RAG2” value [17, 32]?
**A.** The value was 0.2497.

**Q.** And the “Array Heatmap signal, KDM5B (3)” value [18, 32]?
**A.** Its value is 0.5015.

**Q.** What about the “Array Heatmap signal, ING3” value [19, 32] of the same substance?
**A.** The value was 0.4849.

**Q.** What about the “Array Heatmap signal, ING4” value [20, 32] of the same substance?
**A.** Its value is 0.489.

**Q.** And the “Array Heatmap signal, MLL5” value [21, 32]?
**A.** The value was 0.5529.

**Q.** What about the “Array Heatmap signal, CHD5 (PPCC)” value [22, 33] of the same substance?
**A.** The value was 0.5931.

**Q.** And the “Array Heatmap signal, KDM4C (TTP)” value ([23]; histone peptide array, GST-tagged reader, TTP = Tandem Tudor domain + PHD)?
**A.** Its value is 0.5459.

**Q.** What about the “Array Heatmap signal, PHF13” value [24, 32] of the same substance?
**A.** The value was 0.644.

**Q.** And the “Array Heatmap signal, DPF2 (PPC2W2)” value ([25]; histone peptide array, GST-tagged reader, PPC2W2 = Dual PHD + C2W2-type Zn-finger)?
**A.** The value was 0.6771.

**Q.** What about the “Array Heatmap signal, CHD5 (PCC)” value ([26]; histone peptide array, GST-tagged reader, PCC = PHD + Dual Chromodomain) of the same substance?
**A.** The value was 0.8263.

**Q.** And the “Array Heatmap signal, SP140L” value [27, 32]?
**A.** The value was 0.3805.

**Q.** And the “Array Heatmap signal, PHF2” value [28, 32]?
**A.** The value was 0.467.

**Q.** And the “Array Heatmap signal, TRIM66 (PB)” value [29, 34]?
**A.** The value was 0.6313.

**Q.** And the “Array Heatmap signal, DIDO1” value [30, 32]?
**A.** The value was 0.6557.

**Q.** And the “Array Heatmap signal, TAF3” value [31, 32]?
**A.** Its value is 0.309.

**Q.** With H3 (21-44): H3 21-44 as the substance, how does the “Array Heatmap value (peptide array binding signal)” value (“Array Heatmap value” below) ([1]; PHF21A, GST-tagged) read?
**A.** Its value is 0.4741.

**Q.** What about the “Array Heatmap value” value ([2]; PHRF1 (RP), GST-tagged) of the same substance?
**A.** The value was 0.4628.

**Q.** What about the “Array Heatmap value” value ([3]; KDM7A, GST-tagged) of the same substance?
**A.** Its value is 0.5232.

**Q.** What about the “Array Heatmap value” value ([4]; BAZ2B, GST-tagged) of the same substance?
**A.** The value was 0.4957.

**Q.** What about the “Array Heatmap value” value ([5]; AIRE (PP), GST-tagged) of the same substance?
**A.** The value was 0.5101.

**Q.** What about the “Array Heatmap value” value ([6]; PHF8, GST-tagged) of the same substance?
**A.** The value was 0.4334.

**Q.** And the “Array Heatmap value” value ([7]; PHF23, GST-tagged)?
**A.** Its value is 0.5869.

**Q.** And the “Array Heatmap value” value ([8]; KDM5A (3), GST-tagged)?
**A.** The value was 0.4938.

**Q.** And the “Array Heatmap value” value ([9]; MORC3 (CW), GST-tagged)?
**A.** The value was 0.3763.

**Q.** What about the “Array Heatmap value” value ([10]; CHD4 (PPCC), GST-tagged) of the same substance?
**A.** Its value is 0.6413.

**Q.** And the “Array Heatmap value” value ([11]; KDM5B (1), GST-tagged)?
**A.** Its value is 0.6648.

**Q.** And the “Array Heatmap value” value ([12]; ING1, GST-tagged)?
**A.** Its value is 0.59.

**Q.** What about the “Array Heatmap value” value ([13]; ING2, GST-tagged) of the same substance?
**A.** Its value is 0.6399.

**Q.** And the “Array Heatmap value” value ([14]; ING5, GST-tagged)?
**A.** Its value is 0.397.

**Q.** And the “Array Heatmap value” value ([15]; BPTF (PB), GST-tagged)?
**A.** Its value is 0.3717.

**Q.** What about the “Array Heatmap value” value ([16]; KDM5A (1), GST-tagged) of the same substance?
**A.** Its value is 0.5113.

**Q.** And the “Array Heatmap value” value ([17]; RAG2, GST-tagged)?
**A.** Its value is 0.2504.

**Q.** What about the “Array Heatmap value” value ([18]; KDM5B (3), GST-tagged) of the same substance?
**A.** The value was 0.4825.

**Q.** And the “Array Heatmap value” value ([19]; ING3, GST-tagged)?
**A.** Its value is 0.4903.

**Q.** And the “Array Heatmap value” value ([20]; ING4, GST-tagged)?
**A.** Its value is 0.5057.

**Q.** And the “Array Heatmap value” value ([21]; MLL5, GST-tagged)?
**A.** The value was 0.6112.

**Q.** And the “Array Heatmap value” value ([22]; CHD5 (PPCC), GST-tagged)?
**A.** Its value is 0.5941.

**Q.** What about the “Array Heatmap value” value ([23]; KDM4C (TTP), GST-tagged) of the same substance?
**A.** The value was 0.5571.

**Q.** What about the “Array Heatmap value” value ([24]; PHF13, GST-tagged) of the same substance?
**A.** Its value is 0.6442.

**Q.** What about the “Array Heatmap value” value ([25]; DPF2 (PPC2W2), GST-tagged) of the same substance?
**A.** The value was 0.7579.

**Q.** What about the “Array Heatmap value” value ([26]; CHD5 (PCC), GST-tagged) of the same substance?
**A.** Its value is 0.7773.

**Q.** And the “Array Heatmap value” value ([27]; SP140L, GST-tagged)?
**A.** Its value is 0.3812.

**Q.** And the “Array Heatmap value” value ([28]; PHF2, GST-tagged)?
**A.** Its value is 0.5123.

**Q.** And the “Array Heatmap value” value ([29]; TRIM66 (PB), GST-tagged)?
**A.** Its value is 0.5647.

**Q.** What about the “Array Heatmap value” value ([30]; DIDO1, GST-tagged) of the same substance?
**A.** The value was 0.7788.

**Q.** And the “Array Heatmap value” value ([31]; TAF3, GST-tagged)?
**A.** Its value is 0.2755.
